These results are taken from PMC12313019, “Fibrotic lung ECM upregulates SDC4/integrin-αvβ1 interaction and the interfering peptide SDC4_87-131 and its derivative peptides alleviate pulmonary fibrosis” (Regenerative Biomaterials, 2025).

Entries after “also recorded” stand apart in the source; their conditions may differ.

Assay [1] has as its system BLM-induced PF, C57BL/6J mice. The assay is described as follows: BLM-induced PF in mice: lung index and blood cell count. The conditions noted are these: n=6. In kind it is in vivo, mouse. The method, then: (§1) After the mice were anesthetized (1% sodium pentobarbital 50 mg/kg was injected intraperitoneally), 150 μL of bleomycin (BLM, 5 mg/mL, BIO-000001) was inhaled into the lungs of the mice by tracheal inhalation instillation. One day later, the mice were randomly divided into model and drug treatment groups, and the mice in the control group were only subjected to saline inhalation.
Based on the dosage of SDC2 fragment peptide and our experimental results (Supplementary Figure S10A and B), the dosage schedule of SDC4_87-131 was set as follows: starting on the third day after BLM inhalation, 1 mg/kg, administered via trachea infusion once every three days. And Anti-SDC4(93-121) 8 mg/kg was administered on the third and tenth days (reference dosage).
At the termination of the experiment, the mice were euthanized and their lung tissues were taken after the eyeballs were removed and blood was collected. Within 2 hours after blood collection, the blood samples were tested on the URIT-2900VetPLUS automatic animal blood cell analyzer.

For the next assay, the system named is BLM lung injury, mice. The assay is described as follows: BLM lung injury, subacute stage, HE staining. In kind it is in vivo, mouse. The following applies: 300 μg/kg, i.h., qd from 24 h after BLM, to day 15. The method, then:
as §1
(A) Flow chart of animal experiments. SDC487-131 (300 μg/kg, i.h., qd) was administered starting 24 h after BLM modeling, and the experiment ended on the 15th day; (B) The pathological changes at the subacute stage of BLM lung injury were observed by HE staining (scale bar = 1000 μm, 50μm). […] To achieve better results, we used intratracheal instillation of SDC487-131 (1mg/kg, q3d).

For the substance “Ac-NHIPERAGSGSQVPTEPKKLEENEVIPKRISPVEESEDVSNKVSM-NH2 [SDC4_87-131]”, in assay [1] (Figure 5F), the “downregulating effect (blood leukocyte count) vs C8” value is given as “notably stronger than that of C8”. The “lung index and blood leukocyte count” value in assay [1] (SDC4_87-131, C8, Anti-SDC4(93-121) groups) is “could reduce the lung index and blood leukocyte count”. The “BLM lung injury, subacute stage” value with BLM lung injury, mice was “can alleviate BLM lung injury in the subacute stage; also recorded: effective”.
